Results: US20240189449A1, “LIPID NANOPARTICLES AND POLYNUCLEOTIDES ENCODING ORNITHINE TRANSCARBAMYLASE FOR THE TREATMENT OF ORNITHINE TRANSCARBAMYLASE DEFICIENCY” (ModernaTX, Inc., priority 2021, published 2024)
Marks after values point to notes of the source that are not given here.

What was measured:
[1] = test system: CD-1 mice; test: hEPO expression in serum after IV lipid nanoparticles with hEPO mRNA, CD-1 mice; assay type: in vivo; settings: LNP with DSPC, cholesterol, Compound I; for Mean 6 hr hEPO Concentration: serum 6 hours after injection
Protocol: To assess potency of expression and metabolic stability of lipids of the disclosure, hepatocyte protein expression (hEPO) was measured following administration to mice of a nanoparticle of the disclosure.
Lipid nanoparticles including DSPC as a phospholipid, cholesterol as a structural lipid, Compound I as a PEG lipid, an ionizable amino lipid of Formula (II), and an mRNA encoding hEPO were intravenously administered to CD-1 mice. The concentration of hEPO in serum was tested at 6 hours after injection.

[2] = test system: CD-1 mice; test: Parent lipid remaining in liver at 24 h, CD-1 mice (hEPO mRNA LNPs); assay type: in vivo; settings: for Approx. Percent Total Dose of Parent Lipid Remaining at 24 h: calculation assumes a 25 g mouse with a 1.5 g liver

| Compound | Parent Lipid Remaining (nmol/g liver tissue) at 24 h [2] [nmol/g liver tissue] | Approx. Percent Total Dose of Parent Lipid Remaining at 24 h [2] | hEPO AUC [1] | Mean 6 hr hEPO Concentration [1] [mIU/mL] |
| --- | --- | --- | --- | --- |
| CCCCCC(CCCCC)CCOC(=O)CCCCCCCN(CCCO)CCCCCCCC(=O)OCCC(CCCCC)CCCCC [Compound 42] |  |  |  | 1428145 |
| CCCCCCCCC(CCCCCCCC)OC(=O)CCCCCCCN(CCCCCCCC(=O)OCC(CCCCC)CCCCCCC)CCCNc1c(NC)c(=O)c1=O (stereo not shown) [Compound 16] | 77 ± 3 | 79% | 2.18E+07 | 1461176 |
| CCCCCC(CCCCC)OC(=O)CCCCCCCN(CCO)CCCCCCCC(=O)OCCC(CCC)CCC [Compound 68] |  |  |  | 488014 |
| CCCCCCC(CCCCCC)CCOC(=O)CCCCCCCN(CCCCCCCC(=O)OCCC(CCCCCC)CCCCCC)CCCNc1c(NC)c(=O)c1=O [Compound 28] | 58 ± 7 | 60% | 1.44E+07 | 938332 |
| CCCCCC(CCCCC)OC(=O)CCCCCCCN(CCO)CCCCCCCC(=O)OCCC(CCCC)CCCC [Compound 70] |  |  |  | 1479577 |
| CCCCCCCCC(CCCCCCCC)OC(=O)CCCCCCCN(CCCCO)CCCCCCCC(=O)OCCC(CCCC)CCCC [Compound 50] |  |  |  | 2617164 |
| CCCCCCCCC(CCCCCCCC)OC(=O)CCCCCCCN(CCO)CCCCCCCC(=O)OCCC(CCCCCC)CCCCCC [Compound 21] | 13 ± 2 | 9% | 7.29E+06 | 458772 |
| CCCCCC(CCCCC)CCOC(=O)CCCCCCCN(CCCCO)CCCCCCCC(=O)OCCC(CCCCC)CCCCC [Compound 44] |  |  |  | 1273871 |
| CCCCCCCCC(CCCCCC)COC(=O)CCCCCN(CCCCCCCC(=O)OC(CC)CCCCCCCC)CCCNc1c(NC)c(=O)c1=O (stereo not shown) [Compound 15] | 51 ± 4 | 53% | 4.31E+07 | 2933644 |
| CCCCCC(CCCCC)CCOC(=O)CCCCCCCN(CCO)CCCCCCCC(=O)OCCC(CCC)CCC [Compound 67] |  |  |  | 969620 |
| CCCCCCC(CCCCCC)CCOC(=O)CCCCCCCN(CCO)CCCCCCCC(=O)OCCC(CCCCCC)CCCCCC [Compound 23] | 24 ± 3 | 18% | 1.40E+07 | 847586 |
| CCCCC(CCCC)CCOC(=O)CCCCCCCN(CCO)CCCCCCCC(=O)OCCC(CCCC)CCCC [Compound 69] |  |  |  | 1572094 |
| CCCCCCCCC(CCCCCCCC)OC(=O)CCCCCCCN(CCCO)CCCCCCCC(=O)OCCC(CCCC)CCCC [Compound 49] |  |  |  | 2385524 |
| CCCCCCCCC(CCCCCCCC)OC(=O)CCCCCCCN(CCCCCCCC(=O)OCCC(CCCCCC)C(C)C)CCCNc1c(NC)c(=O)c1=O (stereo not shown) [Compound 17] | 35 ± 5 | 36% | 2.61E+07 | 1777875 |
| CCCCCCC(CCCCCC)OC(=O)CCCCCCCN(CCO)CCCCCCCC(=O)OCCC(CCC)CCC [Compound 71] |  |  |  | 1921281 |
| CCCCCCCCC(CCCCCCCC)OC(=O)CCCCCCCN(CCCCCCCC(=O)OCCC(CCCC)CCCCCC)CCCNc1c(NC)c(=O)c1=O (stereo not shown) [Compound 20] | 65 ± 5 | 67% | 2.13E+07 | 1414856 |
| CCCCCCCCC(CCCCCCCC)OC(=O)CCCCCCCN(CCCCCCCC(=O)OCCC(CCCCCC)CCCCCC)CCCNc1c(NC)c(=O)c1=O [Compound 26] | 141 ± 15 | >95%^b | 7.52E+06 | 496951 |

Continued, in another order:

| Parent Lipid Remaining (nmol/g liver tissue) at 24 h [2] [nmol/g liver tissue] | Approx. Percent Total Dose of Parent Lipid Remaining at 24 h [2] | Compound | hEPO AUC [1] | Mean 6 hr hEPO Concentration [1] [mIU/mL] |
| --- | --- | --- | --- | --- |
| 0.5 ± 0.3 | <0.1% | CCCCCC(CCCCC)CCCOC(=O)CCCCCCCN(CCO)CCCCCCCC(=O)OCCCC(CCCCC)CCCCC [Compound 33] | 5.89E+06 | 389395 |
| 1.8 ± 0.6 | 2 ± 0.9% | CCCCC(CCCC)CCOC(=O)CCCCCCCN(CCCCCCCC(=O)OC(CCCC)CCCC)CCCNc1c(NC)c(=O)c1=O [Compound 62] | 6.51E+06 | 475498 |
| 0.1 ± 0.03 | <1% | CCCCC(CCCC)OC(=O)CCCCCCCN(CCCCCCCC(=O)OCCC(CCC)CCC)CCCNc1c(NC)c(=O)c1=O [Compound 66] | 2.10E+05 | 17801 |
| 2 ± 0.6 | <0.1% | CCCCCCCCC(CCCCCCCC)OC(=O)CCCCCCCN(CCO)CCCCCCCC(=O)OCCCC(CCCCC)CCCCC [Compound 31] | 7.72E+06 | 517841 |
| 8.5 ± 0.6 | 9 ± 0.8% | CCCCCCC(CCCCCC)OC(=O)CCCCCCCN(CCCCCCCC(=O)OCCC(CCCC)CCCC)CCCNc1c(NC)c(=O)c1=O [Compound 60] | 1.42E+07 | 1031398 |
| 4 ± 0.6 | 4% | CCCCCC(CCCCC)CCOC(=O)CCCCCCCN(CCCCCCCC(=O)OCCC(CCC)CCC)CCCNc1c(NC)c(=O)c1=O [Compound 51] | 1.31E+07 | 1556494 |
| 12 ± 1 | 13% | CCCCCC(CCCCC)CCOC(=O)CCCCCCCN(CCCCCCCC(=O)OC(CCCCC)CCCCC)CCCNc1c(NC)c(=O)c1=O [Compound 57] | 1.60E+07 | 1238977 |
| <0.1 | <0.1% | CCCCCCCCC(CCCCCCCC)OC(=O)CCCCCCCN(CCO)CCCCCCCC(=O)OCCC1CCC(CC)C1 (stereo not shown) [Compound 37] | 1.25E+06 | 85052 |
| <1 | <1% | CCCC(CCC)CCOC(=O)CCCCCCCN(CCCCCCCC(=O)OCCC(CCC)CCC)CCCNc1c(NC)c(=O)c1=O [Compound 53] | 6.63E+03 | 130324 |
| <0.1 | <0.1% | CCCCCCCCC(CCCCCCCC)OC(=O)CCCCCCCN(CCO)CCCCCCCC(=O)OCCC1CCC(CC)CC1 (stereo not shown) [Compound 35] | 1.72E+06 | 106485 |
| 12 ± 2 | 12% | CCCCCC(CCCCC)CCCOC(=O)CCCCCCCN(CCCCCCCC(=O)OCCCC(CCCCC)CCCCC)CCCNc1c(NC)c(=O)c1=O [Compound 34] | 3.01E+06 | 205437 |
| 66 ± 16 | 68% | CCCCCCCCC(CCCCCCCC)OC(=O)CCCCCCCN(CCCCCCCC(=O)OCCC(CCCCC)CCCCC)CCCNc1c(NC)c(=O)c1=O [Compound 29] | 1.23E+07 | 808734 |
| 0.9 ± 0.3 | 0.9 ± 0.06% | CCCCCC(CCCCC)OC(=O)CCCCCCCN(CCCCCCCC(=O)OCCC(CCC)CCC)CCCNc1c(NC)c(=O)c1=O [Compound 65] | 1.02E+07 | 734054 |
| 15 ± 2 | 15% | CCCCCC(CCCCC)CCOC(=O)CCCCCCCN(CCCCCCCC(=O)OC(CCCC)CCCC)CCCNc1c(NC)c(=O)c1=O [Compound 58] | 2.33E+07 | 1347883 |
| 8.9 ± 2.8 | 9 ± 3%^ | CCCCCCCC(CCCCCCC)OC(=O)CCCCCCCN(CCCCCCCC(=O)OCCC(CCC)CCC)CCCNc1c(NC)c(=O)c1=O [Compound 63] | 9.66E+06 | 692334 |
| 4 ± 1 | 4% | CCCCCCCCC(CCCCCCCC)OC(=O)CCCCCCCN(CCCCCCCC(=O)OCCC1CCC(CCC)CC1)CCCNc1c(NC)c(=O)c1=O (stereo not shown) [Compound 39] | 1.94E+06 | 129750 |
| 3 ± 0.3 | 3% | CCCCCCCCC(CCCCCCCC)OC(=O)CCCCCCCN(CCCCCCCC(=O)OCCC1CCC(CC)C1)CCCNc1c(NC)c(=O)c1=O (stereo not shown) [Compound 40] | 4.64E+06 | 303957 |
